Experimental data reported in ChEMBL document CHEMBL1201862, “PubChem BioAssay data set” (2004).
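Growth conditions: 96-well plates. Treatment: test compound, 48 hours, 5 concentrations. Analysis: linear interpolation between bracketing concentrations; unreached endpoints set to highest concentration. The concentration for 50% growth inhibition is given as GI50.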 The source made the active and inactive calls. No stated cut-off is given here; in the data, active = GI50 up to about 1.1 µM and inactive = higher.

What was measured:
Assay in all cases: DTP human tumour cell line panel, 48 h
[1] = test system: DMS-273
[2] = test system: XF498
[3] = test system: KM-20L2
[4] = test system: LXFL 529
[5] = test system: DLD-1
[6] = test system: M19-MEL
[7] = test system: RXF 631
[8] = test system: SNB-78
[9] = test system: HOP-18

Measured: GI50

CCCCCCCCCCCCCC(=O)O[C@H]1CC[C@H](NC(=O)[C@H](OC)[C@H](O)[C@@H](O)[C@H](O)/C=C/C(C)C)C(=O)N(C)C1 [BENGAMIDE B]
active: [1] < 1.5 nM | [2] 16.4 nM | [3] 5.77 nM | [4] 11.4 nM | [5] 7.05 nM | [6] 6.11 nM | [7] < 1.5 nM | [8] 173 nM | [9] 134 nM
